{"source": "patent US20240034729A9", "about": "“HETEROCYCLIC COMPOUND, INTERMEDIATE, PREPARATION METHOD THEREFOR AND APPLICATION THEREOF” (WUHAN LL SCIENCE AND TECHNOLOGY DEVELOPMENT CO., LTD., priority 2018, published 2024)", "key": {"[1]": {"details": "phase II clinical trial; cited from earlier work"}, "[2]": {"test_system": "Male Dunkin Hartley guinea pigs", "experiment": "ATP-citric acid cough model", "assay_type": "in vivo, guinea pig", "details": "for Number of coughs / cough inhibition (in words): compared with the vehicle group", "procedure": "Male Dunkin Hartley guinea pigs (300-400 g) were placed into a whole-body plethysmography box to adapt for 3-5 min, then ATP atomization is carried out for 2 min, and 3 min later, 5 min of citric acid atomization was followed, with all atomization rates being about 300 uL/min. The number of coughs and the cough latency of the animals within 10 min from the start of the citric acid atomization were recorded. During the 10-min observation, coughs of the animals were counted manually, and the coughs were judged according to cough postures of the guinea pigs, such as abdominal twitching, mouth opening, head inclining downward abruptly and the like. The number of coughs during 10 min were recorded, and the cough latency of the guinea pigs was also recorded.\nThe animals were divided into a vehicle group, a dextromethorphan (63 mg/kg) positive group, an AF-219 (30 mg/kg) positive group and Example 173 compound (3, 10, 30 mg/kg) administration groups, and all the compounds were orally administered. Except that dextromethorphan was administered 40 min before ATP-citric acid exposure, the remaining compounds were administered 2 h before ATP-citric acid exposure."}, "[3]": {"experiment": "In vitro metabolic stability, guinea pig liver microsome", "assay_type": "in vitro ADME", "details": "liver microsomes, 1 mg/mL liver microsome protein, 37° C., NA = essentially not metabolized, read-out: T1/2 in guinea pig liver microsome", "method_in_brief": "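Test compound incubated at 37° C. in microsomes (1 mg/mL protein) with NADPH-regenerating system (1 mM NADP, 6 mM glucose 6-phosphate, 25 U/mL G6PDH, 5 mM MgCl2). Timed aliquots quenched in cold acetonitrile with internal standards; supernatant analysed by LC-MS to derive in vitro half-life.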"}, "[4]": {"target": "hP2X2/3 (heterodimeric receptors formed by human purinergic P2X receptors subtype 2 and subtype 3) (Homo sapiens (Human), UniProt P56373+Q9UBL9)", "sequence (P56373 whole entry)": "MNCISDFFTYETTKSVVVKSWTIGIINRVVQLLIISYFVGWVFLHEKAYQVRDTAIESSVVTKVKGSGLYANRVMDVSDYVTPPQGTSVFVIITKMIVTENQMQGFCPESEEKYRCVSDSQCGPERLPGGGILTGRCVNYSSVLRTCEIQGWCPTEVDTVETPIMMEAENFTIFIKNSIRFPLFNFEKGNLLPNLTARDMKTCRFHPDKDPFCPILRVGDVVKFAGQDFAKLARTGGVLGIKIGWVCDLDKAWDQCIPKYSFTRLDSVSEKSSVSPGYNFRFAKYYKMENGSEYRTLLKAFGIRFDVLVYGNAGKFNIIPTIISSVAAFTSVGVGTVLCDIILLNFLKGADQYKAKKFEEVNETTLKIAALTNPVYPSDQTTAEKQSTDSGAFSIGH", "sequence (Q9UBL9 whole entry)": "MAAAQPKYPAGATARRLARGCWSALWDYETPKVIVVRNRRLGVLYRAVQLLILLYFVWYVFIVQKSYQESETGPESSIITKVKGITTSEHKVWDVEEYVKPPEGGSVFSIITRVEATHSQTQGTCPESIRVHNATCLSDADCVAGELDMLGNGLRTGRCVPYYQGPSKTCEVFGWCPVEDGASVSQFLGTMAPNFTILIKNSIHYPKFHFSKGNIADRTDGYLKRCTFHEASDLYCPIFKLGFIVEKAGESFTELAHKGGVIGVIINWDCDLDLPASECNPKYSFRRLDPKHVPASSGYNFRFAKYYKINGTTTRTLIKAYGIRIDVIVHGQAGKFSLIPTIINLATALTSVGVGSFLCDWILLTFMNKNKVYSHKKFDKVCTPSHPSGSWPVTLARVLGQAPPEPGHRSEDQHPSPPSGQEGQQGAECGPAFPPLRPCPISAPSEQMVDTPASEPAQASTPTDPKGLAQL", "experiment": "FLIPR calcium assay, hP2X2/3 expressed in HEK293 cells (P2X2/3 receptor selectivity)", "assay_type": "cell-based"}, "[5]": {"experiment": "In vitro metabolic stability, human liver microsome", "assay_type": "in vitro ADME", "details": "liver microsomes, 1 mg/mL liver microsome protein, 37° C., NA = essentially not metabolized, read-out: T1/2 in human liver microsome", "method_in_brief": "(§1)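 Compounds incubated with rat or human liver microsomes. At each time point reactions stopped with cold acetonitrile containing internal standards and centrifuged. Supernatants analysed by LC-MS to derive in vitro metabolic half-life.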"}, "[6]": {"test_system": "Male SD rats", "experiment": "Two-bottle dysgeusia test (quinine water vs normal water)", "assay_type": "in vivo, rat", "details": "for Quinine/tap water* 100%: Table 9, rats, single intraperitoneal injection", "procedure": "All drinking water bottles were removed out 20 h before the start of the formal experiment, and all the animals were deprived of water until the start of the experiment. In the experiment, all the animals were randomly grouped and then subjected to a single intraperitoneal injection of a test compound or a vehicle before water was resupplied. The administration time was determined according to the Tmax of the test compound. Then the animals were placed in separate cages, and two bottles of drinking water (one bottle of normal drinking water and one bottle of 0.3 mM quinine water) were provided."}, "[7]": {"experiment": "In vitro metabolic stability, rat liver microsome", "assay_type": "in vitro ADME", "details": "liver microsomes, 1 mg/mL liver microsome protein, 37° C., NA = essentially not metabolized, read-out: T1/2 in rat liver microsome", "method_in_brief": "as §1"}, "[8]": {"test_system": "Male Dunkin Hartley guinea pigs", "experiment": "Citric acid only cough model", "assay_type": "in vivo, guinea pig", "set-up": "Mean cough latency: unit not given beside the values", "details": "for Mean number of coughs: 17.5% citric acid", "procedure": "Male Dunkin Hartley guinea pigs (300-350 g) were placed in an animal atomization box, and then the door of the atomization box was closed while the ultrasonic atomizer (Guangdong Yuehua) was turned on. 17.5% citric acid gas was introduced into the atomization box at a maximum atomization rate (about 2 mL/min) for 20 s, and coughs of the animals within 10 min were continuously observed from the time of the start of atomization. During the 10-min observation, coughs of the animals were counted manually, and the number of coughs were judged according to cough postures of the guinea pigs, such as abdominal twitching, mouth opening, and head inclining downward abruptly. The number of coughs during the first 5 min and that during 10 min were recorded, and the cough latency of the guinea pigs, namely the time from the initiation of citric acid induction to the appearance of the first cough, was also recorded."}, "[9]": {"experiment": "In vitro cytotoxicity assay, CCK-8 method", "assay_type": "cell-based", "details": "human, HepG2 cells", "method_in_brief": "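HepG2 cells at 50,000/well, grown to 80–90% confluence, exposed to compound dilutions or DMSO vehicle for 48 h at 37 °C. Viability by CCK-8 (1.5 h, 37 °C), absorbance at 450 nm; CC50 calculated.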"}, "[10]": {"details": "30 mg/kg oral, 2 h before ATP-citric acid exposure"}, "[11]": {"details": "before administration (baseline of the group)"}}, "note": "“Also recorded” adds a separate entry of the source.", "data": [{"molecule": "COc1cc(C(C)C)c(Oc2cnc(N)nc2N)cc1S(N)(=O)=O", "note": "[AF-219, reference compound]", "values": [{"measurement": "Dysgeusia (in words)", "setting": "[1]", "value": "serious dysgeusia"}, {"measurement": "Efficacy for refractory cough (in words)", "setting": "[1]", "value": "relatively good efficacy for refractory cough"}, {"measurement": "Cough inhibition ratio vs. vehicle (%)", "setting": "[2]; [10]", "value": 45.20, "unit": "%"}, {"measurement": "Number of coughs during 10 min", "setting": "[2]; [10]", "value": 11.42}]}, {"molecule": "COC(=O)N1CCO[C@@H](Cc2c(-c3c(F)cc(S(N)(=O)=O)cc3F)nc3cc(Cl)ccn23)C1", "note": "[Compound 172, methyl (S)-2-((7-chloro-2-(2,6-difluoro-4-sulfamoylphenyl)imidazo[1,2-a]pyridin-3-yl)methyl)morpholine-4-carboxylate]", "values": [{"measurement": "half-life", "setting": "[3]", "value": 410, "unit": "min"}, {"measurement": "Folds of selectivity", "setting": "[4]", "value": ">85714"}, {"measurement": "half-life", "setting": "[5]", "value": 824, "unit": "min"}, {"measurement": "Ratio of quinine/water intake of rats (in words)", "setting": "[6]; 5 mg/kg, 10 mg/kg and 20 mg/kg, compared with the blank vehicle", "value": "almost unaffected"}, {"measurement": "Quinine/tap water* 100%", "setting": "[6]; 5 mg/kg", "value": 7.05, "unit": "%"}, {"measurement": "Quinine/tap water* 100%", "setting": "[6]; 10 mg/kg", "value": 7.41, "unit": "%"}, {"measurement": "Quinine/tap water* 100%", "setting": "[6]; 20 mg/kg", "value": 8.66, "unit": "%"}, {"measurement": "half-life", "setting": "[7]", "value": 223, "unit": "min"}, {"measurement": "Cough inhibition rate Vs Baseline (%)", "setting": "[8]; 30 mg/kg", "value": 50.6, "unit": "%"}, {"measurement": "Cough inhibition rate Vs Vehicle (%)", "setting": "[8]; 30 mg/kg", "value": 43.9, "unit": "%"}, {"measurement": "Number of coughs and cough latency (in words)", "setting": "[8]; 30 mg/kg, compared with the blank vehicle or the condition before administration", "value": "can effectively reduce the number of coughs and prolong the cough latency"}, {"measurement": "Mean cough latency", "setting": "[8]; after administration, 30 mg/kg", "value": 118.89}, {"measurement": "Mean number of coughs", "setting": "[8]; after administration, 30 mg/kg", "value": 9.67}, {"measurement": "Mean cough latency", "setting": "[8]; [11]", "value": 87.56}, {"measurement": "Mean number of coughs", "setting": "[8]; [11]", "value": 19.56}, {"measurement": "CC50 at 48 h", "setting": "[9]", "value": 57.1, "unit": "µM"}, {"measurement": "Number of coughs during 10 min", "setting": "[2]; 3 mg/kg oral, 2 h before ATP-citric acid exposure", "value": 14.42}, {"measurement": "Number of coughs during 10 min", "setting": "[2]; 10 mg/kg oral, 2 h before ATP-citric acid exposure", "value": 10.17}, {"measurement": "Number of coughs during 10 min", "setting": "[2]; [10]", "value": 9.83}, {"measurement": "Number of coughs / cough inhibition (in words)", "setting": "[2]", "value": "stronger cough inhibition effect than positive compound 2"}, {"measurement": "Number of coughs / cough inhibition (in words)", "setting": "[2]; listed as compound 172", "value": "can significantly reduce the number of coughs; also recorded: inhibition in a dose-dependent manner"}]}]}
